Source: patent US7687623B2, “Pyrrolobenzodiazepines and heterocyclic carboxamide derivatives as follicle stimulating hormone receptor (FSH-R) antagonists” (Wyeth LLC, priority 2005, dated 2010)

Key:
human FSH receptor = biological target: T1, human FSH receptor (Homo sapiens, UniProt P23945); experiment: FSH receptor-dependent CRE-luciferase reporter gene assay (CHO FSH-R 6CRE-Luc, 1D7 cells); type: cell-based; settings: for IC50: dose-response format in presence of EC50 of purified human FSH
T1 construct: host or cells: CHO-K1 (CHO FSH-R 6CRE-Luc, 1D7 cells)
T1 sequence (P23945 18-695): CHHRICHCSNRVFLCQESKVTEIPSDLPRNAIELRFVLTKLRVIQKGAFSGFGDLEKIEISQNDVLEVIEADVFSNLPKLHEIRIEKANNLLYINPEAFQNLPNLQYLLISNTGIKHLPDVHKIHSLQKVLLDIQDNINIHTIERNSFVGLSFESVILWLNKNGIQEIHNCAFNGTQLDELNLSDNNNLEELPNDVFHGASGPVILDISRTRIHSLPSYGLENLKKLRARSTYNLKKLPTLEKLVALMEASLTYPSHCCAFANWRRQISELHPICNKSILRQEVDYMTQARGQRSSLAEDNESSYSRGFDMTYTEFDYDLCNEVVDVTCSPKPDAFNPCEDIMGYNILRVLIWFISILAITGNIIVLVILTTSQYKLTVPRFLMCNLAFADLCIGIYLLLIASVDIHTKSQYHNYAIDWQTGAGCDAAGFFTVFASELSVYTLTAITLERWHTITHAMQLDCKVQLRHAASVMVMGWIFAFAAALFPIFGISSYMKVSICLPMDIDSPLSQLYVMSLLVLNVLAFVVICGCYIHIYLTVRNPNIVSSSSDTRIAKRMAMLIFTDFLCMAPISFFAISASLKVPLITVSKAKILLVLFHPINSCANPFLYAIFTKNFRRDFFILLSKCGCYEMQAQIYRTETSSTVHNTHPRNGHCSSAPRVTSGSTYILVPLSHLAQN
Protocol: This procedure was used to identify and determine the relative potencies of human FSH receptor antagonists using a Chinese hamster ovarian cell line that stably produces the human FSH receptor and a luciferase reporter gene regulated by cAMP response elements.
The compounds were subsequently diluted in DMSO to working dilutions of 1 and 20 or 30 mM for 2-dose testing format and 1 μM-10 mM for dose-response format. The DMSO dilutions were diluted 500-fold in sterile growth medium [D-MEM/F-12 (GIBCO/BRL; Grand Island N.Y.) containing 15 mM HEPES, 2 mM 1-glutamine, pyridoxine hydrochloride, phenol red and 5% FetalClone II (HyClone Laboratories, Inc; Logan, Utah), 0.2% DMSO, 100 units penicillin G/ml, and 100 μg streptomycin sulfate/ml (GIBCO/BRL)]. The concentration of the vehicle in each of the compound dilutions was the same. POSITIVE CONTROLS: Purified human FSH (>98%) was purchased from Cortex Biochem, Inc. (San Leandro, Calif.) and a known FSH-R thiazolidinone antagonist was obtained from the Wyeth Research compound repository. Preparation of Cells
The CHO FSH-R 6CRE-Luc cells (1D7 cells) were obtained from Affymax (Palo Alto, Calif.). These Chinese hamster ovary cells (CHO-K1) were genetically engineered to stably express the recombinant human FSH receptor gene and a luciferase reporter gene under the regulation of 6 copies of a cAMP response element. The cells were plated one day prior to treatment into 96-well white opaque plates at a density of 50,000 cells/100 μl/well in growth medium. On the day of treatment, the growth medium was removed from the wells by aspiration and 50 µl of fresh growth medium was added to each well. The cells were incubated at 37° C. in a humidified incubator with 5% CO2/95% air.
The treated cells were incubated for 4 hours at 37° C. in a humidified incubator with 5% CO2/95% air. At the end of the incubation period, luciferase activity was measured by chemiluminescence using a commercially available kit (LucScreen, Tropix, Inc., Bedford, Mass.) according to the manufacturer's specifications, except that Buffer 1 and Buffer 2 were mixed together in equal proportion prior to the addition of 100 μl of the combined reagents to each well. Chemiluminescence was detected using a luminometer (EG & G Berthold Microlumat LB 96 P, Wallac, Gaithersburg, Md.) with chemiluminescence measured for 1 sec/well.
Background luminescence was measured for each well prior to the addition of the LucScreen reagent.
In the 96-well 2-dose format, each compound was tested in duplicate at each dose. […] One plate was used to test a maximum of 22 compounds.
The EC50 of purified human FSH alone was tested in triplicate with each test compound. The doses chosen to test each compound were extrapolated from the initial 2-dose screening process. Along with the test compounds, purified human FSH was also tested in a dose response (0.03, 0.1, 0.3, 1, 3, 10, and 30 ng/ml) for a positive control and quality control. One plate was used for 3 test compounds and the FSH positive control.
Luciferase activity is expressed as relative light units/sec/well. Luciferase activity in antagonist was compared to the appropriate negative and positive controls. For 2-dose testing, results are reported as luciferase activity and are expressed as % inhibition of the response obtained from the EC50 of FSH. For dose-response testing, results are reported as IC50 values. Data were analyzed statistically by one-way analysis of variance with appropriate weighting and transformation and relevant paired test as determined by Biometrics (Wyeth Research, Princeton, N.J.). IC50 values were calculated using the Stat/Excel program developed by Biometrics with appropriate weighting and transformation.

hFSH-R = biological target: T2, hFSH-R (Homo sapiens, UniProt P23945); experiment: cAMP accumulation (RIA) in CHO-3D2 cells (hFSH-R), hFSH-induced; type: cell-based; settings: for Emax: read-out: cAMP % Efficacy
T2 construct: expressed in transfected cells; host or cells: CHO-3D2 cells
T2 sequence (P23945 18-695): T1 sequence (P23945 18-695)
Protocol: COMPOUND VEHICLE: Stock compounds were solubilized in 100% DMSO (Sigma Chemical Co.) at a concentration of 30 mM. The compounds were subsequently diluted in sterile assay medium consisting of Opti-MEM® I (Life Technologies) with 0.1% (w/v) BSA (Sigma), prior to use in the bio-assay. The final concentration of DMSO in the assay is 0.1%.
Plated cells are then incubated at 37° C. in a humidified 5% CO2/95% air, atmosphere.
On the day of the assay, cells were washed three times with 100 μl/well of assay medium consisting of Opti-MEM® I (Life Technologies) with 0.1% (w/v) BSA (Sigma). Medium was removed and 100 μl of assay medium was added to each well. Plates were incubated for an additional 30 minutes at 37° C. […] Reactions were terminated by the addition of 50 μl of 0.2N hydrochloric acid to each well and cAMP-accumulation was measured by radioimmunoassay (RIA) using a commercially available kit (Amersham).
All test compounds were evaluated in a dose-response paradigm ranging from about 0.01 to about 30 μM. Controls and test compounds were evaluated in quadruplicate in a 96-well format.
Along with the test compounds, FSH was also run as a positive control in the agonist mode using concentrations ranging from about 0.1-1000 ng/ml.
Data were analyzed by one-way analysis of variance and significant differences between treatments and control determined by Least Significant Difference test.
Test compounds were compared to the effect of purified human FSH.

Row | IC50 (human FSH receptor) | IC50 (hFSH-R) | Emax (hFSH-R) | melting point | inhibition at 30 µM (human FSH receptor; 2-dose format, test concentration 30 μM in parentheses, % inhibition of the response to EC50 of FSH) | SMILES
1 | 42.6 µM | 1.2 µM | 79% | 148 to 150 °C | – | COc1ccccc1-c1ccc(C(=O)N2Cc3ccc(C(=O)NCc4cccn4C)n3Cc3ccccc32)cc1 [Example 2, 10-[(2′-Methoxy-1,1′-biphenyl-4-yl)carbonyl]-N-[(1-methyl-1H-pyrrol-2-yl)methyl]-10,11-dihydro-5H-pyrrolo[2,1-c][1,4]benzodiazepine-3-carboxamide]
2 | > 30 µM | – | – | 233 to 234 °C | – | Cc1cc(CNC(=O)c2ccc3n2Cc2ccccc2N(C(=O)c2ccc(-c4c(C)cccc4C)c(C)c2)C3)no1 [Example 4, N-[(5-Methylisoxazol-3-yl)methyl]-10-[(2,2′,6′-trimethyl-1,1′-biphenyl-4-yl)carbonyl]-10,11-dihydro-5H-pyrrolo[2,1-c][1,4]benzodiazepine-3-carboxamide]
3 | 10.2 µM | 0.6 µM | 96% | 111 to 113 °C | – | COc1ccccc1-c1ccc(C(=O)N2Cc3ccc(C(=O)NCc4cc(C)on4)n3Cc3ccccc32)cc1 [Example 5, 10-[(2′-Methoxy-1,1′-biphenyl-4-yl)carbonyl]-N-[(5-methylisoxazol-3-yl)methyl]-10,11-dihydro-5H-pyrrolo[2,1-c][1,4]benzodiazepine-3-carboxamide]
4 | 3.3 µM | 0.3 µM | 81% | – | – | COc1ccccc1-c1ccc(C(=O)N2Cc3ccc(C(=O)NCc4cc(C)oc4C)n3Cc3ccccc32)cc1 [Example 6, N-[(2,5-Dimethyl-3-furyl)methyl]-10-[(2′-methoxy-1,1′-biphenyl-4-yl)carbonyl]-10,11-dihydro-5H-pyrrolo[2,1-c][1,4]benzodiazepine-3-carboxamide]
5 | – | – | – | 180 to 182 °C | 26% | COc1ccccc1-c1ccc(C(=O)N2Cc3ccc(C(=O)NCC4CN(Cc5ccccc5)CCO4)n3Cc3ccccc32)cc1 (centres unmarked) [Example 7, N-[(4-Benzylmorpholin-2-yl)methyl]-10-[(2′-methoxy-1,1′-biphenyl-4-yl)carbonyl]-10,11-dihydro-5H-pyrrolo[2,1-c][1,4]benzodiazepine-3-carboxamide]
6 | > 30 µM | – | – | 222 to 224 °C | – | Cc1cc(C(=O)N2Cc3ccc(C(=O)NCc4cccn4C)n3Cc3ccccc32)ccc1-c1c(C)cccc1C [Example 8, N-[(1-Methyl-1H-pyrrol-2-yl)methyl]-10-[(2,2′,6′-trimethyl-1,1′-biphenyl-4-yl)carbonyl]-10,11-dihydro-5H-pyrrolo[2,1-c][1,4]benzodiazepine-3-carboxamide]
7 | – | – | – | 133 to 135 °C | – | COc1ccc(-c2nc(CNC(=O)c3ccc4n3Cc3ccccc3N(C(=O)c3ccc(-c5ccccc5C)c(C)c3)C4)no2)cc1 [Example 10, 10-[(2,2′-Dimethyl-1,1′-biphenyl-4-yl)carbonyl]-N-{[5-(4-methoxyphenyl)-1,2,4-oxadiazol-3-yl]methyl}-10,11-dihydro-5H-pyrrolo[2,1-c][1,4]benzodiazepine-3-carboxamide]
8 | – | – | – | 198 to 201 °C | – | Cc1ccccc1-c1ccc(C(=O)N2Cc3ccc(C(=O)NCc4csc(-c5ccc(Cl)cc5)n4)n3Cc3ccccc32)cc1C [Example 11, N-{[2-(4-Chlorophenyl)-1,3-thiazol-4-yl]methyl}-10-[(2,2′-dimethyl-1,1′-biphenyl-4-yl)carbonyl]-10,11-dihydro-5H-pyrrolo[2,1-c][1,4]benzodiazepine-3-carboxamide]
9 | > 30 µM | – | – | – | – | Cc1ccccc1-c1ccc(C(=O)N2Cc3ccc(C(=O)NCC4CCCNC4)n3Cc3ccccc32)cc1C (centres unmarked) [Example 12, 10-[(2,2′-Dimethyl-1,1′-biphenyl-4-yl)carbonyl]-N-(piperidin-3-ylmethyl)-10,11-dihydro-5H-pyrrolo[2,1-c][1,4]benzodiazepine-3-carboxamide]
